Data published in PMC12638379, “An innovative approach to development of new pyrazolylquinolin-2-one hybrids as dual EGFR and BRAF^V600E inhibitors” (Molecular Diversity, 2025).
Like-named read-outs stand apart in the source and are kept apart here.

Test system: NCI 60 cancer cell lines
Test: NCI anticancer screening over a panel of 60 cancer cells, single concentration 10 µM
Type: cell-based, human
Settings: Homo sapiens, read-out: Growth inhibition (GI %)
Summary of the method: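 Run under the NCI Compound Evaluation Branch protocol, each compound was tested once at 10 µM. The panel comprised 60 cancer cell lines of diverse tissue origin, including leukemia, lung, colon, CNS, renal, ovarian, breast and prostate.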

[1] = 786-0, Renal cancer 786-0, 10 μM
[2] = A549, Non-small cell lung cancer A549/ATCC, 10 μM
[3] = BT-549, Breast cancer BT-549, 10 μM
[4] = CAKI-1, Renal cancer CAKI-1, 10 μM
[5] = CCRF-CEM, Leukemia CCRF-CEM, 10 μM
[6] = COLO 205, Colon cancer COLO 205, 10 μM
[7] = DU-145, Prostate cancer DU-145, 10 μM
[8] = EKVX, Non-small cell lung cancer EKVX, 10 μM
[9] = HCC 2998, Colon cancer HCC-2998, 10 μM
[10] = HCT-15, Colon cancer HCT-15, 10 μM
[11] = HCT-116, Colon cancer HCT-116, 10 μM
[12] = HL-60, Leukemia HL-60(TB), 10 μM
[13] = HOP-62, Non-small cell lung cancer HOP-62, 10 μM
[14] = HOP-92, Non-small cell lung cancer HOP-92, 10 μM
[15] = HT-29, Colon cancer HT29, 10 μM
[16] = Hs-578T, Breast cancer HS 578T, 10 μM
[17] = IGROV-1, Ovarian cancer IGROV1, 10 μM
[18] = LOX IMVI, Melanoma LOX IMVI, 10 μM
[19] = MDA-MB-231, Breast Cancer MDA-MB 231/ATCC, 10 μM
[20] = MDA-MB-435, Melanoma MDA-MB-435, 10 μM
[21] = MDA-MB-468, Breast cancer MDA-MB-468, 10 μM
[22] = Malme-3M, Melanoma MALME-3M, 10 μM
[23] = NCI-H23, Non-small cell lung cancer NCI-H23, 10 μM
[24] = NCI-H226, Non-small cell lung cancer NCI-H226, 10 μM
[25] = NCI-H322M, Non-small cell lung cancer NCI-H322M, 10 μM
[26] = NCI-H460, Non-small cell lung cancer NCI-H460, 10 μM
[27] = NCI-H522, Non-small cell lung cancer NCI-H522, 10 μM
[28] = NCI/ADR-RES, Ovarian cancer NCI/ADR-RES, 10 μM
[29] = OVCAR-3, Ovarian cancer OVCAR-3, 10 μM
[30] = OVCAR-4, Ovarian cancer OVCAR-4, 10 μM
[31] = OVCAR-5, Ovarian cancer OVCAR-5, 10 μM
[32] = OVCAR-8, Ovarian cancer OVCAR-8, 10 μM
[33] = RPMI-8226, Leukemia RPMI-8226, 10 μM
[34] = RXF 393, Renal cancer RXF 393, 10 μM
[35] = SF-268, CNS Cancer SF-268, 10 μM
[36] = SF-295, CNS Cancer SF-295, 10 μM
[37] = SF-539, CNS Cancer SF-539, 10 μM
[38] = SK-MEL-2, Melanoma SK-MEL-2, 10 μM
[39] = SK-MEL-5, Melanoma SK-MEL-5, 10 μM
[40] = SK-MEL-28, Melanoma SK-MEL-28, 10 μM
[41] = SK-OV-3, Ovarian cancer SK-OV-3, 10 μM
[42] = SN12C, Renal cancer SN12C, 10 μM
[43] = SNB-19, CNS Cancer SNB-19, 10 μM
[44] = SNB-75, CNS Cancer SNB-75, 10 μM
[45] = SW-620, Colon cancer SW-620, 10 μM
[46] = T47D, Breast cancer T-47D, 10 μM
[47] = TK-10, Renal cancer TK-10, 10 μM
[48] = UACC-62, Melanoma UACC-62, 10 μM
[49] = UACC-257, Melanoma UACC-257, 10 μM
[50] = UO-31, Renal cancer UO-31, 10 μM

Measured: inhibition at 10 µM

CC(=O)c1cnn(-c2cc(=O)[nH]c3ccc(Br)cc23)c1C [Compound 2e, 4-(4-Acetyl-5-methyl-1H-pyrazol-1-yl)-6-bromoquinolin-2(1H)-one]
9.22%: [18]
13.6%: [13]
6.46%: [8] | [42]
15.6%: [44]
8.16%: [5]
12.8%: [12]
7.32%: [27]
< 5%: [1] | A498, Renal cancer A498, 10 μM | [2] | ACHN, Renal cancer ACHN, 10 μM | [3] | [6] | [7] | [9] | [10] | [11] | [17] | K562, Leukemia K-562, 10 μM | KM12, Colon cancer KM12, 10 μM | Leukemia SR, 10 μM | MCF7, Breast cancer MCF7, 10 μM | [19] | [20] | [21] | MOLT-4, Leukemia MOLT-4, 10 μM | Melanoma M14, 10 μM | [23] | [25] | [26] | [28] | [29] | [30] | [31] | [32] | [34] | [35] | [38] | [39] | [40] | [41] | [45] | [47] | U-251, CNS Cancer U251, 10 μM | [48] | [49]
7.46%: [37]
6.55%: [36]
14%: [22]
5.52%: [43]
20.4%: [14]
37.4%: [50]
9.34%: [33]
10.7%: [24]
13.3%: Prostate cancer PC-3, 10 μM
12.2%: [46]
16.5%: [4]
6.91%: [16]
7.95%: [15]

CC(=O)c1cnn(-c2cc(=O)[nH]c3ccc(C)cc23)c1C [Compound 2b, 4-(4-Acetyl-5-methyl-1H-pyrazol-1-yl)-6-methylquinolin-2(1H)-one]
< 5%: [1] | A498, Renal cancer A498, 10 μM | [2] | ACHN, Renal cancer ACHN, 10 μM | [3] | [5] | [6] | [7] | [8] | [9] | [10] | [11] | [14] | [15] | [16] | [17] | K562, Leukemia K-562, 10 μM | KM12, Colon cancer KM12, 10 μM | Leukemia SR, 10 μM | [19] | [20] | [21] | MOLT-4, Leukemia MOLT-4, 10 μM | [22] | Melanoma M14, 10 μM | [23] | [24] | [25] | [26] | [28] | [29] | [30] | [31] | [32] | [33] | [34] | [35] | [36] | [37] | [38] | [39] | [40] | [41] | [42] | [43] | [44] | [45] | [47] | [48] | [49]
6.93%: [13]
5.31%: U-251, CNS Cancer U251, 10 μM
5.38%: [18]
8.89%: [4]
6.79%: [27]
19%: [12] | [50]
4.29%: Prostate cancer PC-3, 10 μM
6.75%: [46]
